Values after ≈ are worked out from the molar mass of the structure shown.
Legend:
human mGluR2 = molecular target: T1, human mGluR2 (Homo sapiens, UniProt Q14416); assay: [35S]-GTPγS binding assay, allosteric activator activity with CHO cell membranes; format: biochemical; conditions: membranes of CHO cells expressing human mGluR2, 1 μM glutamate; read-out: GTPgS EC50
T1 construct: expressed in transfected cells; host or cells: CHO cells, stably transfected; membranes
Protocol: A [^35S]-GTPγS binding assay was used to functionally assay mGluR2 receptor activation. The allosteric activator activity of compounds at the human mGluR2 receptor were measured using a [^35S]-GTPγS binding assay with membranes prepared from CHO cells which stably express the human mGluR2. The assay is based upon the principle that agonists bind to G-protein coupled receptors to stimulate GDP-GTP exchange at the G-protein. Since [^35S]-GTPγS is a non-hydrolyzable GTP analog, it can be used to provide an index of GDP-GTP exchange and, thus, receptor activation. The GTPγS binding assay therefore provides a quantitative measure of receptor activation.
Membranes were prepared from CHO cells stably transfected with human mGluR2. Membranes (30 μg protein) were incubated with test compound (3 nM to 300 μM) for 15 minutes at room temperature prior to the addition of 1 μM glutamate, and incubated for 30 min at 30° C. in 500 μl assay buffer (20 mM HEPES, 100 mM NaCl, 10 mM MgCl2), containing 30 μM GDP and 0.1 nM [^35S]-GTPγS (1250 Ci/mmol). Reactions were carried out in triplicate in 2 ml polypropylene 96-well plates. Reactions were terminated by vacuum filtration using a Packard 96-well harvester and Unifilter-96, GF/B filter microplates. The filter plates were washed 4×1.5 ml with ice-cold wash buffer (10 mM sodium phosphate buffer, pH 7.4). The filter plates were dried and 35 μl of scintillation fluid (Microscint 20) was added to each well. The amount of radioactivity bound was determined by counting plates on the Packard TopCount. Data was analyzed using GraphPad Prism, and EC50 and Emax values (relative to the maximum glutamate effect) were calculated using non-linear regression.

hERG ion channel = hERG ion channel (Homo sapiens, UniProt Q12809); assay: hERG activity (process of Bridgland-Taylor et al.); format: cell-based
Protocol: hERG activity was assessed using the process described by Bridgland-Taylor, M. H., et al, J. Pharm. Tox. Methods 54 (2006) 189-199.

[1] = Aqueous solubility in pH 7.4 phosphate buffer; format: physicochemical; conditions: thermodynamic from solid, equilibration 24 h at 25° C.
Protocol: Solubility was determined in pH 7.4 phosphate buffer after equilibration for 24 h at 25° C. and HPLC-UV and LC-MSMS were used for quantitation.

hERG ion channel, sequence (Q12809 whole entry): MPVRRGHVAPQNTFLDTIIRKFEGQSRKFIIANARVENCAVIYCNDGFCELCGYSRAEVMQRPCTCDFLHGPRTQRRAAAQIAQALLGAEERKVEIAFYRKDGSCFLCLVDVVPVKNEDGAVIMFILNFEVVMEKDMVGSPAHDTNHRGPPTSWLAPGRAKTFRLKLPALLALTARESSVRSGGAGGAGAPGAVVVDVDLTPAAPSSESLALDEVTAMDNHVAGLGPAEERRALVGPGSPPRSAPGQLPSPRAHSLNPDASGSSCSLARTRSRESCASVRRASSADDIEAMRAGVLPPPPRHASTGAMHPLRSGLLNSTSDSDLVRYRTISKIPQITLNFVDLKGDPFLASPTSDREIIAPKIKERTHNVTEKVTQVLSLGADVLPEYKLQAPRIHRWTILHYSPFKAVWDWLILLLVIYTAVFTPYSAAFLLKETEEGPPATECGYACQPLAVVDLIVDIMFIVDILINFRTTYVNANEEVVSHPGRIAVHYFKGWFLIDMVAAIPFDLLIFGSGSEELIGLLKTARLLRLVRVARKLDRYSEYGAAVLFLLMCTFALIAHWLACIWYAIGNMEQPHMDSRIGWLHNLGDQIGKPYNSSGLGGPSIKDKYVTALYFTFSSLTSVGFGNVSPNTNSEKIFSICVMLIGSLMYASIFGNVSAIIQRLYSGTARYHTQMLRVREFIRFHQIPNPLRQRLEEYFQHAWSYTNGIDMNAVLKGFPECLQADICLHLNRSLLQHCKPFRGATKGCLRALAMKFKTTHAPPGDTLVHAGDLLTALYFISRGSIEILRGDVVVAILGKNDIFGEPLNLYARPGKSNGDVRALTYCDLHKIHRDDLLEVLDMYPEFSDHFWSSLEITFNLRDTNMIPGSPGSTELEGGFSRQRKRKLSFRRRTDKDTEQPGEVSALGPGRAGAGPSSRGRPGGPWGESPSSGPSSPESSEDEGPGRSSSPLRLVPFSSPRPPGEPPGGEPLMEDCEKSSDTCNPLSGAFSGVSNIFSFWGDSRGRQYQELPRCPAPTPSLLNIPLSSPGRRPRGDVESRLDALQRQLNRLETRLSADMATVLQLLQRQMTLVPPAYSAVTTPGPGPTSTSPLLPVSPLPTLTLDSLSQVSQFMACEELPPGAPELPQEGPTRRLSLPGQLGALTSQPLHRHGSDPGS
T1 sequence (Q14416 19-872): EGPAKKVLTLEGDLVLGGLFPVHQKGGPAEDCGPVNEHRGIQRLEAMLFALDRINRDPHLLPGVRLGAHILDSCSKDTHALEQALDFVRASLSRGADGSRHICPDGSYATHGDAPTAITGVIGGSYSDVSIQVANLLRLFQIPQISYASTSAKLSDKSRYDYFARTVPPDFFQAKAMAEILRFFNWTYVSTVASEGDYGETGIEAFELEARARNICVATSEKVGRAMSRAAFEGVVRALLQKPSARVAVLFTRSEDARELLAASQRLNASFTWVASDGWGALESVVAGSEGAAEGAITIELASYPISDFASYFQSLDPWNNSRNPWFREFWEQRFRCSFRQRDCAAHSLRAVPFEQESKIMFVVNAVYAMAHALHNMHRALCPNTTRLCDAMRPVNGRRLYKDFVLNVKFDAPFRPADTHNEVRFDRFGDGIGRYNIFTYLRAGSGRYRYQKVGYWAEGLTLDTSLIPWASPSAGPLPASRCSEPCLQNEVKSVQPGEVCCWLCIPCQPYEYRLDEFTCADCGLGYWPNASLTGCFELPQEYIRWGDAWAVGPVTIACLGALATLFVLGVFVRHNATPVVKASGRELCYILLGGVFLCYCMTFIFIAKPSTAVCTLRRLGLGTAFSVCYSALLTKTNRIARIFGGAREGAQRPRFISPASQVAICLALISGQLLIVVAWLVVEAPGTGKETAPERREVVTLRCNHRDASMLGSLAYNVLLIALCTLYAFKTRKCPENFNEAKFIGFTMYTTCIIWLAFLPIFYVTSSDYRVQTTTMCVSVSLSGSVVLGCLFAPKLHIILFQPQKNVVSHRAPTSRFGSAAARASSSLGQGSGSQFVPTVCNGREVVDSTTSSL

| SMILES | EC50 (human mGluR2) [nM] | hERG (hERG ion channel) [µM] | solubility at 24 h [1] [µM] |
| --- | --- | --- | --- |
| Cc1cc(-c2nc(CN3C[C@@H]4C[C@H]3CN4)no2)cc2c1C(=O)N(Cc1ccc(Cl)cc1)C2 [Example 2, 2-(4-Chloro-benzyl)-5-[3-(2,5-diaza-bicyclo[2.2.1]hept-2-ylmethyl)-[1,2,4]oxadiazol-5-yl]-7-methyl-2,3-dihydro-isoindol-1-one] | 206 | 33.0 | 336 (≈ 151 µg/mL) |
| Cc1cc(-c2nc(CN3CCNCC3)no2)cc2c1C(=O)N(Cc1ccc(Cl)cc1)C2 [Example 4, 2-(4-Chloro-benzyl)-7-methyl-5-(3-piperazin-1-ylmethyl-[1,2,4]oxadiazol-5-yl)-2,3-dihydro-isoindol-1-one] | 378 | 25.0 | > 500 |
| Cc1cc(-c2nc(CN3CCNC(C)C3)no2)cc2c1C(=O)N(Cc1ccc(Cl)cc1)C2 (centres unmarked) [Example 3, 2-(4-Chloro-benzyl)-7-methyl-5-[3-(3-methyl-piperazin-1-ylmethyl)-[1,2,4]oxadiazol-5-yl]-2,3-dihydro-isoindol-1-one] | 154 | 12.0 | 396 (≈ 179 µg/mL) |
| Cc1cc(-c2nc(CN3CCNC[C@@H]3C)no2)cc2c1C(=O)N(Cc1ccc(Cl)cc1)C2 [Example 5, 2-(4-Chloro-benzyl)-7-methyl-5-[3-(2-methyl-piperazin-1-ylmethyl)-[1,2,4]oxadiazol-5-yl]-2,3-dihydro-isoindol-1-one] | 352 | 12.6 | 384 (≈ 174 µg/mL) |
| Cc1cc(-c2nc(CN3CCNCC3)no2)cc2c1C(=O)N(Cc1ccc(OC(F)(F)F)cc1)C2 [Example 1, 7-Methyl-5-(3-piperazin-1-ylmethyl-[1,2,4]oxadiazol-5-yl)-2-(4-trifluoromethoxybenzyl)-2,3-dihydroisoindol-1-one] |  | 11.0 | 44.9 (≈ 21.9 µg/mL) |
| Cc1cc(-c2nc(CN3CCNC[C@H]3C)no2)cc2c1C(=O)N(Cc1ccc(Cl)cc1)C2 [Example 6, 2-(4-Chloro-benzyl)-7-methyl-5-[3-(2-methyl-piperazin-1-ylmethyl)-[1,2,4]oxadiazol-5-yl]-2,3-dihydro-isoindol-1-one] | 317 | 18.7 | > 500 |

— patent publication US8377939B2, “Oxadiazole derivatives and their use as metabotropic glutamate receptor potentiators 842” (AstraZeneca AB, priority 2007, dated 2013)
